Assay results: ChEMBL document CHEMBL1159340, “Antibacterial diterpenes from Calceolaria pinifolia” (J Nat Prod, 2003)
Converted amounts (≈) assume the structure as drawn.

Experiments:
Bacillus subtilis [1] = experiment: Inhibition of RNA synthesis in Bacillus subtilis assessed as incorporation of [3H]uridine at 0.25 ug/mL by LKB Betaplate scintillation counter relative to control; format: functional; parameters: scale not given: the % may be the effect or the level left
Bacillus subtilis [2] = experiment: Inhibition of DNA synthesis in Bacillus subtilis assessed as [3H]thymidine uptake at 0.25 ug/mL by LKB Betaplate scintillation counter relative to control; format: functional; parameters: scale not given: the % may be the effect or the level left
Bacillus subtilis [3] = experiment: Inhibition of protein synthesis in Bacillus subtilis assessed as [3H]amino acid uptake at 0.25 ug/mL by LKB Betaplate scintillation counter relative to control; format: functional; parameters: scale not given: the % may be the effect or the level left
Bacillus subtilis [4] = experiment: Inhibition of RNA synthesis in Bacillus subtilis assessed as [3H]uridine uptake at 0.25 ug/mL by LKB Betaplate scintillation counter relative to control; format: functional; parameters: scale not given: the % may be the effect or the level left
Bacillus subtilis [5] = experiment: Inhibition of protein synthesis in Bacillus subtilis assessed as incorporation of [3H]amino acid at 0.25 ug/mL by LKB Betaplate scintillation counter relative to control; format: functional; parameters: scale not given: the % may be the effect or the level left
Bacillus subtilis [6] = experiment: Inhibition of DNA synthesis in Bacillus subtilis assessed as incorporation of [3H]thymidine at 0.25 ug/mL by LKB Betaplate scintillation counter relative to control; format: functional; parameters: scale not given: the % may be the effect or the level left
Staphylococcus aureus [7] = experiment: Antimicrobial activity against methicillin-susceptible Staphylococcus aureus 375 after 18 hrs by microbroth dilution method; format: functional
Bacillus subtilis [8] = experiment: Antimicrobial activity against Bacillus subtilis 327 after 18 hrs by microbroth dilution method; format: functional
Staphylococcus aureus [9] = experiment: Antimicrobial activity against methicillin-resistant Staphylococcus aureus 310 after 18 hrs by microbroth dilution method; format: functional
Escherichia coli = experiment: Antimicrobial activity against Escherichia coli imp 389 after 18 hrs by microbroth dilution method; format: functional
Staphylococcus aureus [10] = experiment: Antimicrobial activity against Staphylococcus aureus infected in CD1 mouse administered subcutaneously after 30 mins infection measured after 7 days; format: functional; conditions: sc
[11] = Ratio of LD50 for CD1 mouse to ED50 for Staphylococcus aureus
Bacillus subtilis [12] = experiment: Inhibition of RNA synthesis in Bacillus subtilis assessed as incorporation of [3H]uridine at 2 ug/mL by LKB Betaplate scintillation counter relative to control; format: functional; parameters: scale not given: the % may be the effect or the level left
Bacillus subtilis [13] = experiment: Inhibition of protein synthesis in Bacillus subtilis assessed as incorporation of [3H]amino acid at 2 ug/mL by LKB Betaplate scintillation counter relative to control; format: functional; parameters: scale not given: the % may be the effect or the level left
[14] = Toxicity in human RBC assessed as hemolysis at 8 ug/ml after 2 hrs; format: cell-based, Erythrocyte; conditions: red blood cells (RBC), read-out: Activity
Bacillus subtilis [15] = experiment: Inhibition of RNA synthesis in Bacillus subtilis assessed as incorporation of [3H]uridine at 8 ug/mL by LKB Betaplate scintillation counter relative to control; format: functional; parameters: scale not given: the % may be the effect or the level left
Bacillus subtilis [16] = experiment: Inhibition of protein synthesis in Bacillus subtilis assessed as [3H]amino acid uptake at 4 ug/mL by LKB Betaplate scintillation counter relative to control; format: functional; parameters: scale not given: the % may be the effect or the level left
Bacillus subtilis [17] = experiment: Inhibition of protein synthesis in Bacillus subtilis assessed as incorporation of [3H]amino acid at 1 ug/mL by LKB Betaplate scintillation counter relative to control; format: functional; parameters: scale not given: the % may be the effect or the level left
Bacillus subtilis [18] = experiment: Inhibition of DNA synthesis in Bacillus subtilis assessed as [3H]thymidine uptake at 8 ug/mL by LKB Betaplate scintillation counter relative to control; format: functional; parameters: scale not given: the % may be the effect or the level left
Bacillus subtilis [19] = experiment: Inhibition of RNA synthesis in Bacillus subtilis assessed as [3H]uridine uptake at 4 ug/mL by LKB Betaplate scintillation counter relative to control; format: functional; parameters: scale not given: the % may be the effect or the level left
[20] = Toxicity in human RBC assessed as hemolysis at 1 ug/ml after 2 hrs; format: cell-based, Erythrocyte; conditions: red blood cells (RBC), read-out: Activity
[21] = Toxicity in human RBC assessed as hemolysis at 4 ug/ml after 2 hrs; format: cell-based, Erythrocyte; conditions: red blood cells (RBC), read-out: Activity
Bacillus subtilis [22] = experiment: Inhibition of RNA synthesis in Bacillus subtilis assessed as incorporation of [3H]uridine at 1 ug/mL by LKB Betaplate scintillation counter relative to control; format: functional; parameters: scale not given: the % may be the effect or the level left
Bacillus subtilis [23] = experiment: Inhibition of protein synthesis in Bacillus subtilis assessed as [3H]amino acid uptake at 2 ug/mL by LKB Betaplate scintillation counter relative to control; format: functional; parameters: scale not given: the % may be the effect or the level left
Bacillus subtilis [24] = experiment: Inhibition of RNA synthesis in Bacillus subtilis assessed as [3H]uridine uptake at 1 ug/mL by LKB Betaplate scintillation counter relative to control; format: functional; parameters: scale not given: the % may be the effect or the level left
Bacillus subtilis [25] = experiment: Inhibition of RNA synthesis in Bacillus subtilis assessed as [3H]uridine uptake at 2 ug/mL by LKB Betaplate scintillation counter relative to control; format: functional; parameters: scale not given: the % may be the effect or the level left
Bacillus subtilis [26] = experiment: Inhibition of DNA synthesis in Bacillus subtilis assessed as [3H]thymidine uptake at 2 ug/mL by LKB Betaplate scintillation counter relative to control; format: functional; parameters: scale not given: the % may be the effect or the level left
Bacillus subtilis [27] = experiment: Inhibition of RNA synthesis in Bacillus subtilis assessed as [3H]uridine uptake at 8 ug/mL by LKB Betaplate scintillation counter relative to control; format: functional; parameters: scale not given: the % may be the effect or the level left
Bacillus subtilis [28] = experiment: Inhibition of DNA synthesis in Bacillus subtilis assessed as incorporation of [3H]thymidine at 1 ug/mL by LKB Betaplate scintillation counter relative to control; format: functional; parameters: scale not given: the % may be the effect or the level left
[29] = Toxicity in human RBC assessed as hemolysis at 2 ug/ml after 2 hrs; format: cell-based, Erythrocyte; conditions: red blood cells (RBC), read-out: Activity
[30] = Toxicity in human RBC assessed as hemolysis at 32 ug/ml after 2 hrs; format: cell-based, Erythrocyte; conditions: red blood cells (RBC), read-out: Activity
[31] = Toxicity in human RBC assessed as hemolysis at 128 ug/ml after 2 hrs; format: cell-based, Erythrocyte; conditions: red blood cells (RBC), read-out: Activity
Bacillus subtilis [32] = experiment: Inhibition of DNA synthesis in Bacillus subtilis assessed as [3H]thymidine uptake at 1 ug/mL by LKB Betaplate scintillation counter relative to control; format: functional; parameters: scale not given: the % may be the effect or the level left
[33] = Toxicity in human RBC assessed as hemolysis at 64 ug/ml after 2 hrs; format: cell-based, Erythrocyte; conditions: red blood cells (RBC), read-out: Activity
Bacillus subtilis [34] = experiment: Inhibition of RNA synthesis in Bacillus subtilis assessed as incorporation of [3H]uridine at 4 ug/mL by LKB Betaplate scintillation counter relative to control; format: functional; parameters: scale not given: the % may be the effect or the level left
Bacillus subtilis [35] = experiment: Inhibition of DNA synthesis in Bacillus subtilis assessed as incorporation of [3H]thymidine at 2 ug/mL by LKB Betaplate scintillation counter relative to control; format: functional; parameters: scale not given: the % may be the effect or the level left
Bacillus subtilis [36] = experiment: Inhibition of protein synthesis in Bacillus subtilis assessed as [3H]amino acid uptake at 8 ug/mL by LKB Betaplate scintillation counter relative to control; format: functional; parameters: scale not given: the % may be the effect or the level left
Bacillus subtilis [37] = experiment: Inhibition of DNA synthesis in Bacillus subtilis assessed as [3H]thymidine uptake at 4 ug/mL by LKB Betaplate scintillation counter relative to control; format: functional; parameters: scale not given: the % may be the effect or the level left
Bacillus subtilis [38] = experiment: Inhibition of protein synthesis in Bacillus subtilis assessed as [3H]amino acid uptake at 1 ug/mL by LKB Betaplate scintillation counter relative to control; format: functional; parameters: scale not given: the % may be the effect or the level left
Bacillus subtilis [39] = experiment: Inhibition of protein synthesis in Bacillus subtilis assessed as incorporation of [3H]amino acid at 4 ug/mL by LKB Betaplate scintillation counter relative to control; format: functional; parameters: scale not given: the % may be the effect or the level left
Bacillus subtilis [40] = experiment: Inhibition of DNA synthesis in Bacillus subtilis assessed as incorporation of [3H]thymidine at 4 ug/mL by LKB Betaplate scintillation counter relative to control; format: functional; parameters: scale not given: the % may be the effect or the level left
Bacillus subtilis [41] = experiment: Inhibition of DNA synthesis in Bacillus subtilis assessed as incorporation of [3H]thymidine at 8 ug/mL by LKB Betaplate scintillation counter relative to control; format: functional; parameters: scale not given: the % may be the effect or the level left
[42] = Toxicity in human RBC assessed as hemolysis at 16 ug/ml after 2 hrs; format: cell-based, Erythrocyte; conditions: red blood cells (RBC), read-out: Activity
Bacillus subtilis [43] = experiment: Inhibition of protein synthesis in Bacillus subtilis assessed as incorporation of [3H]amino acid at 8 ug/mL by LKB Betaplate scintillation counter relative to control; format: functional; parameters: scale not given: the % may be the effect or the level left
[44] = Toxicity in human RBC assessed as hemolysis at 0.5 ug/ml after 2 hrs; format: cell-based, Erythrocyte; conditions: red blood cells (RBC), read-out: Activity

O=C(O)c1cn(C2CC2)c2cc(N3CCNCC3)c(F)cc2c1=O [CIPROFLOXACIN]
Activity (Bacillus subtilis [1]): 94% | Activity (Bacillus subtilis [2]): 73% | Activity (Bacillus subtilis [3]): 104% | Activity (Bacillus subtilis [4]): 100% | Activity (Bacillus subtilis [5]): 94% | Activity (Bacillus subtilis [6]): 61%

C=C[C@]1(C)CC=C2C(CC[C@@H]3[C@](C)(C(=O)O)CCC[C@@]23C)C1 (stereo partly drawn)
MIC (Staphylococcus aureus [7]): 16 µg/mL (≈ 52.9 µM) | MIC (Bacillus subtilis [8]): 32 µg/mL (≈ 106 µM) | MIC (Staphylococcus aureus [9]): 32 µg/mL (≈ 106 µM) | MIC (Escherichia coli): > 128 µg/mL

CN[C@H](CC(C)C)C(=O)N[C@H]1C(=O)N[C@@H](CC(N)=O)C(=O)N[C@H]2C(=O)N[C@H]3C(=O)N[C@H](C(=O)N[C@H](C(=O)O)c4cc(O)cc(O)c4-c4cc3ccc4O)[C@H](O)c3ccc(c(Cl)c3)Oc3cc2cc(c3O[C@@H]2O[C@H](CO)[C@@H](O)[C@H](O)[C@H]2O[C@H]2C[C@](C)(N)[C@H](O)[C@H](C)O2)Oc2ccc(cc2Cl)[C@H]1O [VANCOMYCIN]
ED50 (Staphylococcus aureus [10]): 1 mg/kg | Ratio LD50/ED50 [11]: > 1024

CC1(C)CC[C@]2(C(=O)O)CC[C@]3(C)C(=CC[C@@H]4[C@@]5(C)CC[C@@H](O)C(C)(C)[C@@H]5CC[C@]43C)[C@@H]2C1
MIC (Staphylococcus aureus [7]): > 128 µg/mL | MIC (Bacillus subtilis [8]): 64 µg/mL (≈ 140 µM) | MIC (Escherichia coli): > 128 µg/mL

CC(C)c1ccc2c(c1)CC[C@H]1[C@](C)(C(=O)O)CCC[C@]21C [DEHYDROABIETIC ACID]
MIC (Staphylococcus aureus [7]): 16 µg/mL (≈ 53.3 µM) | MIC (Bacillus subtilis [8]): 32 µg/mL (≈ 107 µM) | MIC (Staphylococcus aureus [9]): 32 µg/mL (≈ 107 µM) | MIC (Escherichia coli): 128 µg/mL (≈ 426 µM)

CO[C@H]1/C=C/O[C@@]2(C)Oc3c(C)c(O)c4c(O)c(c(/C=N/N5CCN(C)CC5)c(O)c4c3C2=O)NC(=O)/C(C)=C\C=C\[C@H](C)[C@H](O)[C@@H](C)[C@@H](O)[C@@H](C)[C@H](OC(C)=O)[C@@H]1C [RIFAMPIN]
Activity (Bacillus subtilis [1]): 29% | Activity (Bacillus subtilis [2]): 94% | Activity (Bacillus subtilis [3]): 90% | Activity (Bacillus subtilis [4]): 143% | Activity (Bacillus subtilis [5]): 25% | Activity (Bacillus subtilis [6]): 108%

C=C[C@]1(C)CC=C2C(CC[C@@H]3[C@](C)(CO)CCC[C@@]23C)C1 (stereo partly drawn)
ED50 (Staphylococcus aureus [10]): > 64 mg/kg | Activity (Bacillus subtilis [12]): 1% | Activity (Bacillus subtilis [13]): 4% | hemolysis at 2 h, 8 ug/ml [14]: 3.32% | Activity (Bacillus subtilis [15]): 0% | Activity (Bacillus subtilis [16]): 1% | Activity (Bacillus subtilis [17]): 36% | Activity (Bacillus subtilis [18]): 1% | Activity (Bacillus subtilis [19]): 0% | hemolysis at 2 h, 1 ug/ml [20]: 0.08% | hemolysis at 2 h, 4 ug/ml [21]: 0.3% | Activity (Bacillus subtilis [22]): 2% | Activity (Bacillus subtilis [23]): 1% | Activity (Bacillus subtilis [24]): 1% | Activity (Bacillus subtilis [25]): 1% | Activity (Bacillus subtilis [26]): 2% | Activity (Bacillus subtilis [27]): 0% | Activity (Bacillus subtilis [28]): 20% | hemolysis at 2 h, 2 ug/ml [29]: 0.45% | hemolysis at 2 h, 32 ug/ml [30]: 71.7% | hemolysis at 2 h, 128 ug/ml [31]: 88.1% | MIC (Staphylococcus aureus [7]): 2 µg/mL (≈ 6.93 µM) | Activity (Bacillus subtilis [32]): 13% | hemolysis at 2 h, 64 ug/ml [33]: 80.2% | MIC (Bacillus subtilis [8]): 4 µg/mL (≈ 13.9 µM) | Activity (Bacillus subtilis [34]): 0% | Activity (Bacillus subtilis [35]): 2% | Activity (Bacillus subtilis [36]): 1% | Activity (Bacillus subtilis [37]): 1% | Activity (Bacillus subtilis [38]): 2% | Activity (Bacillus subtilis [39]): 2% | Activity (Bacillus subtilis [40]): 1% | Activity (Bacillus subtilis [41]): 1% | hemolysis at 2 h, 16 ug/ml [42]: 14.8% | MIC (Staphylococcus aureus [9]): 2 µg/mL (≈ 6.93 µM) | MIC (Escherichia coli): > 128 µg/mL | Activity (Bacillus subtilis [43]): 2% | hemolysis at 2 h, 0.5 ug/ml [44]: 0.3%
